In article PMC7997369, “Assessment of the Multifunctional Behavior of Lupin Peptide P7 and Its Metabolite Using an Integrated Strategy” (Journal of Agricultural and Food Chemistry, 2020):
No end group written: not given here.

How the values were obtained:
[1] = target: T1, HMGCoAR (catalytic domain) (Homo sapiens, UniProt P04035); assay: In vitro HMGCoAR inhibitory activity assay; assay type: biochemical; conditions: 37 °C, NADPH absorbance at 340 nm, mean ± sd of three independent experiments in triplicate
T1 construct: finally the HMGCoAR (catalytic domain) (2 µL); purchased Sigma
T1 sequence (P04035 426-888 limits assumed): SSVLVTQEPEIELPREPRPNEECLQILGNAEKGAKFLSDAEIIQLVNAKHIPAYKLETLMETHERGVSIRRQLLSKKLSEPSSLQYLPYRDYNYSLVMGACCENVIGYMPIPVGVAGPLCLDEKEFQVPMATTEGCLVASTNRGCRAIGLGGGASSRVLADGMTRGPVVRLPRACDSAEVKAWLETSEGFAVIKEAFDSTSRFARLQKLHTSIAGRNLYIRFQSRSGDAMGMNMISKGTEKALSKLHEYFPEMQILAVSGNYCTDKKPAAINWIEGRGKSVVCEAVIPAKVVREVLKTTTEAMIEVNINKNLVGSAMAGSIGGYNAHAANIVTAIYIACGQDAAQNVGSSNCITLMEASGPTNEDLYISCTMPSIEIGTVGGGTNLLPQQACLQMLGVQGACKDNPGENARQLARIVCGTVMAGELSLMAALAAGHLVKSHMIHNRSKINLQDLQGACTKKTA
Procedure: The assay buffer, NADPH, substrate solution, and HMGCoAR were provided in the HMGCoAR assay kit (Sigma). The experiments were carried out testing LTFPG at 100 and 250 μM at 37 °C in agreement with the conditions previously reported.[8] For further details, see the Supporting Information.
The assay buffer, NADPH, substrate solution, and HMGCoAR were provided in the HMGCoAR Assay Kit (Sigma). The experiments were carried out following the manufacturer’s instructions at 37 °C. In particular, each reaction (200 µL) was prepared adding the reagents in the following order: 1 X assay buffer, LTFPG (100.0 and 250.0 µM) or vehicle (C), the NADPH (4 µL), the substrate solution (12 µL), and finally the HMGCoAR (catalytic domain) (2 µL). Subsequently, the samples were mixed and the absorbance at 340 nm read by a microplate reader Synergy H1 from Biotek at time 0 and 10 min. The HMGCoAR-dependent oxidation of NADPH and the inhibition properties of lupin peptides were measured by absorbance reduction, which is directly proportional to enzyme […]
In vitro ACE-inhibitory assay […]
The evaluation of the inhibition of ACE activity was based on the comparison between the concentrations of HA in the presence or absence of the inhibitor (Inhibitor Blank). The phenomenon of autolysis of HHL to give HA was evaluated by a reaction blank, i.e. a sample with the higher

[2] = target: purified human recombinant DPP-IV enzyme (Homo sapiens, UniProt P27487); conditions: read-out: IC50, in vitro on the DPP-IV enzyme; cited from earlier work
purified human recombinant DPP-IV enzyme, sequence (P27487 whole entry): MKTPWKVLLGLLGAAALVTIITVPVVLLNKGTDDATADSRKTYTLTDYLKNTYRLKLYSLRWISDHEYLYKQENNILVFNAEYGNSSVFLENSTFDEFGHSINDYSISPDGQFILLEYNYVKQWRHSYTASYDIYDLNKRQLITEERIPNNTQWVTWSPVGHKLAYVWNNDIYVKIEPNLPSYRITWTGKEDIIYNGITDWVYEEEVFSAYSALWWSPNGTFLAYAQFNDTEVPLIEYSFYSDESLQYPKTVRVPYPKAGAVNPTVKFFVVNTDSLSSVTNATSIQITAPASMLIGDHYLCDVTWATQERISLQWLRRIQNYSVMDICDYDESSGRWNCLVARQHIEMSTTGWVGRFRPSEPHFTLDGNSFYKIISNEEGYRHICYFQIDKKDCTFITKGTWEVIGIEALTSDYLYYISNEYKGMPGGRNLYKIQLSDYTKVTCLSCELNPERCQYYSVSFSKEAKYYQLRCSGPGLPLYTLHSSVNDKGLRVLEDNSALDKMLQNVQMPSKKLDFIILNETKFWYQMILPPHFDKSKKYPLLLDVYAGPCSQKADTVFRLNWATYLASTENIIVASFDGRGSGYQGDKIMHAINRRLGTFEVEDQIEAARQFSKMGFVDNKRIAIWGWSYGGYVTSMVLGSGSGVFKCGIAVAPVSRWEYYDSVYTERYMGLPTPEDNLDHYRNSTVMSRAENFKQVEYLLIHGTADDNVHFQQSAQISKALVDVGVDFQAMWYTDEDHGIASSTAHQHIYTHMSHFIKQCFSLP

[3] = target: angiotensin-converting enzyme (ACE) (Homo sapiens, UniProt P12821); assay: Cellular ACE inhibitory assay in renal HK-2 cells; assay type: cell-based; set-up: endogenous in cells; conditions: HK-2 cells treated 24 h at 37 °C with P7 0.1–250 μM; ACE activity in cell lysates, fluorescent Abz substrate; mean ± sd of three independent experiments in triplicate
angiotensin-converting enzyme (ACE), sequence (P12821 30-1306): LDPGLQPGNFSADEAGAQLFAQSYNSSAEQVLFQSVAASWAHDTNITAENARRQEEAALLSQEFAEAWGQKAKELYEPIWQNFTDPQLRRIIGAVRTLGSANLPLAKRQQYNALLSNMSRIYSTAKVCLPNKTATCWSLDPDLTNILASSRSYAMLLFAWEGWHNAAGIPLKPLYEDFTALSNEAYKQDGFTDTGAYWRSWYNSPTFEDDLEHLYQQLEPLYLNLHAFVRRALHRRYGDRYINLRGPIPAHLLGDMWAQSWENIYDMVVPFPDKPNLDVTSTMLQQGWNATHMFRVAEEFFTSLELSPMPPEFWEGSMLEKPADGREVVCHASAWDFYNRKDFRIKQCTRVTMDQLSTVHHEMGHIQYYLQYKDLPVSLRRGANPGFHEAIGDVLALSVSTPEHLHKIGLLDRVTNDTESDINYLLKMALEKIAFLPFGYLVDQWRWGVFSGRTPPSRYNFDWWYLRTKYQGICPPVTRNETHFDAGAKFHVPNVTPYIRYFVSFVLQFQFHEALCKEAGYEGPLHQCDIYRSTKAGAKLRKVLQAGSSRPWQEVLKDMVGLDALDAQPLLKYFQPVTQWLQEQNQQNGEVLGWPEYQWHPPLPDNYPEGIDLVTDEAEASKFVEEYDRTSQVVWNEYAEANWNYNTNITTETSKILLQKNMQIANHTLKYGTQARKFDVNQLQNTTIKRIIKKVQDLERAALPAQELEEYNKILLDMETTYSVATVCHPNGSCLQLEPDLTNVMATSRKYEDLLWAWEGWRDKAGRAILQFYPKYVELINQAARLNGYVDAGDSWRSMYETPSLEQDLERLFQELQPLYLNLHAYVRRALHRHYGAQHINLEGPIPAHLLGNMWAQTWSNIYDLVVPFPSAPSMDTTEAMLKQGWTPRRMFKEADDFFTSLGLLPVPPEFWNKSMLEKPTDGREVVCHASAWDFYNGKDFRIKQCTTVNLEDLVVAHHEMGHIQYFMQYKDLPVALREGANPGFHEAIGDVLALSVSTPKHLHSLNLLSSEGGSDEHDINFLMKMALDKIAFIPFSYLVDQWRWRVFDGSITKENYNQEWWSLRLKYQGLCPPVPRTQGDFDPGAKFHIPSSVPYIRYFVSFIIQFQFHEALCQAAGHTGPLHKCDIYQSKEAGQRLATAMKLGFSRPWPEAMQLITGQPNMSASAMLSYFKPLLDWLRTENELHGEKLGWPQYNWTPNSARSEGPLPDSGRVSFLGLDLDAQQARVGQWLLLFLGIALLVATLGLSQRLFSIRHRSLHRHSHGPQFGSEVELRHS
Procedure: HK-2 cells from the American Type Culture Collection (ATCC) were cultured using Dulbecco’s modified Eagle’s medium–F12 (DMEM–F12) containing 25 mM glucose, 4 mM stable L-glutamine, 100 units […] penicillin, and 100 μg […] streptomycin, supplemented with 10% heat-inactivated fetal bovine serum (FBS, Hyclone Laboratories, Logan, UT, U.S.A.). […]
For the experiments, HK-2 and Caco-2 cells were seeded on 96-well plates at a density of 5 × 10^4 cells/well for 24 h. […] Total proteins were quantified by the Bradford method, and 2 μL of the supernatant (the equivalent of 2 μg of total proteins) was added to 18 μL of ACE1 lysis buffer in each well in a black 96-well plate with a clear bottom. […] Then, 20 μL of diluted ACE1 substrate [o-aminobenzoyl peptide (Abz-based peptide) substrate, 4% of ACE1 substrate in the assay buffer] was added in each well, except the background well, and the fluorescence (excitation/emission of 330/430 nm) was measured in a kinetic mode for 10 min at 37 °C.

Row | inhibition at 100 µM ([1]; 100 μM) | inhibition at 250 µM ([1]; 250 μM) | IC50 [3] | Substance | IC50 [2]
1 | 4.7 ± 0.3% | 10.3 ± 0.8% |  | LTFPG [LTFPG] | 
2 |  |  | 79.6 µM | LTFPGSAED [P7] | 228 µM
